# Measured values from patent US12391697B2, “Condensed bi-heterocycles as inhibiting agents for Bruton's tyrosine kinase” (BIOGEN MA INC., priority 2019, dated 2025).
# pIC50: −log10 of the molar value. Where a name gives a salt, the structure may show the parent alone. Read-outs that look alike come from different tables or passages of the source.
# Legend:
# [1] = target: BTK (Homo sapiens (Human), UniProt Q06187); assay: In Vitro BTK Kinase Assay: Btk-PolyGAT-LS Assay; format: biochemical; conditions: active BTK enzyme 0.25 nM, ATP 10 μM, polyGAT 100 nM, 30 minutes
# Sequence of BTK (Q06187 whole entry): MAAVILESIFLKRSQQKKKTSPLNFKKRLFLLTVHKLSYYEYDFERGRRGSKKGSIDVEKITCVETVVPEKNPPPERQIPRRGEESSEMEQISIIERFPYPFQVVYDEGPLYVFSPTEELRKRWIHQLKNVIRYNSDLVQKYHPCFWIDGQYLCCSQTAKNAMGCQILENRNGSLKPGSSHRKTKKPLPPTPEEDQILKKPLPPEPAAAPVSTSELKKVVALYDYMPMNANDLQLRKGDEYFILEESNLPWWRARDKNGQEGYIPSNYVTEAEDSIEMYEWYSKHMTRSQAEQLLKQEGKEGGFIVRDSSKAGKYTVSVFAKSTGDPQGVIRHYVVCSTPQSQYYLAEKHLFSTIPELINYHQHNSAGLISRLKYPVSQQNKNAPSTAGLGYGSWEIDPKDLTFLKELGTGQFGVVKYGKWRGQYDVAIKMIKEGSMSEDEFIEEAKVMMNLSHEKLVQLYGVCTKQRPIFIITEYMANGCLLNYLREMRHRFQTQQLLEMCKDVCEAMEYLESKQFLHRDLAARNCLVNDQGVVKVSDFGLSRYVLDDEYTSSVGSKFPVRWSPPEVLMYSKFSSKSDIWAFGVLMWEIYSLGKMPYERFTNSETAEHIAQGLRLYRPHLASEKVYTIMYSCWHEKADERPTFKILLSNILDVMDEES
# Procedure, shortened: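 Recombinant BTK (0.25 nM) phosphorylating 100 nM polyGAT at 10 μM ATP in Tris-HCl pH 7.5 buffer with MgCl2, DTT, Triton X-100 and casein, 30 min, then EDTA stop.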
# [2] = tested on: CD69 expression on CD19+ B cells in whole blood; assay: In Vitro Whole Blood CD69 Assay; format: cell-based, Human
# Method: In Vitro Whole Blood CD69 Assay
# Human heparinized venous blood from health donors was aliquoted into 96-well plate and “spiked” with serial dilutions of formula I compounds in DMSO or with DMSO without drug. The final concentration of DMSO in all wells was 0.1%. The plate was incubated at 37° C. for 30 min. Drug-containing samples were stimulated with 0.1 μg/mL mouse anti-human IgD-dextran (1A62) or 20 μg/mL polyclonal rabbit F(ab′)2 anti-human IgD. Phosphate-buffered saline (PBS) was added to the negative control unstimulated sample and the plates were incubated overnight (18 to 22 hours) at 37° C. Cells were stained with fluorochrome-conjugated anti-CD19 and anti-CD69 antibodies. Lyse/fix solution was used to remove red blood cells by hypotonic lysis and to fix the remaining cells, which were then analyzed by flow cytometry. CD19+ B cells were gated and analyzed for CD69 expression. The percentage of B cells expressing CD69 was plotted versus the log 10 of the concentration of the drug and the best-fit curves (variable Hill slope) were generated to obtain the IC50 value.
# [3] = Homo sapiens, B-cell, human heparinized whole blood, anti-human IgD stimulation, percentage of CD19+ B cells expressing CD69, read-out: IC50
Structure (SMILES),pIC50 [1],"pIC50 [2, 3]","pIC50 ([2]; Homo sapiens, B-cell)","pIC50 ([2]; human heparinized whole blood, anti-human IgD stimulation, percentage of CD19+ B cells expressing CD69, read-out: IC50)"
"Cc1cc(-c2ncnn3cc(N4CCOCC4)cc23)ccc1CNC(=O)c1noc(C(C)(C)C)n1 [Example 5, 5-(tert-butyl)-N-(2-methyl-4-(6-morpholinopyrrolo[2,1-f][1,2,4]triazin-4-yl)benzyl)-1,2,4-oxadiazole-3-carboxamide trifluoroacetate]",≥ 9.00,6.00 to 7.00,,
"CO[C@@H]1CCN(c2cc3c(-c4ccc(CNC(=O)c5nc(C(C)(C)C)no5)c(C)c4)ncnn3c2)C1 (single isomer, unassigned) [Example 24]",≥ 9.00,6.00 to 7.00,,
"Cc1cc(-c2ccnc3cc(-c4cnn(C)c4)nn23)ccc1CNC(=O)c1noc(C(C)(C)C)n1 [Example 16, 5-(tert-butyl)-N-(2-methyl-4-(2-(1-methyl-1H-pyrazol-4-yl)pyrazolo[1,5-a]pyrimidin-7-yl)benzyl)-1,2,4-oxadiazole-3-carboxamide trifluoroacetate]",≥ 9.00,6.00 to 7.00,,
"Cc1cc(-c2ncnn3cc(N4C[C@@H](C)O[C@@H](C)C4)cc23)ccc1CNC(=O)c1noc(C(C)(C)C)n1 [Example 39, 5-(tert-butyl)-N-(4-(6-((2,6-syn)-2,6-dimethylmorpholino)pyrrolo[2,1-f][1,2,4]triazin-4-yl)-2-methylbenzyl)-1,2,4-oxadiazole-3-carboxamide]",≥ 9.00,6.00 to 7.00,,
"CC(C)(C)c1noc(C(=O)NCc2ccc(-c3ncnn4cc(N5CCOCC5)cc34)c(F)c2Cl)n1 [Example 14, 3-(tert-butyl)-N-(2-chloro-3-fluoro-4-(6-morpholinopyrrolo[2,1-f][1,2,4]triazin-4-yl)benzyl)-1,2,4-oxadiazole-5-carboxamide trifluoroacetate]",≥ 9.00,,6.00 to 7.00,
"Cc1cc(-c2ncnn3cc(-c4cnn(CC(F)F)c4)cc23)ccc1CNC(=O)c1noc(C(C)(C)C)n1 [Example 10, 5-(tert-butyl)-N-(4-(6-(1-(2,2-difluoroethyl)-1H-pyrazol-4-yl)pyrrolo[2,1-f][1,2,4]triazin-4-yl)-2-methylbenzyl)-1,2,4-oxadiazole-3-carboxamide trifluoroacetate]",≥ 9.00,6.00 to 7.00,,
"CC(C)(C)c1nc(C(=O)NCc2ccc(-c3ncnn4cc(N5CCOCC5)cc34)cc2C2CC2)no1 [Example 37, 5-(tert-butyl)-N-(2-cyclopropyl-4-(6-morpholinopyrrolo[2,1-f][1,2,4]triazin-4-yl)benzyl)-1,2,4-oxadiazole-3-carboxamide]",≥ 9.00,< 6.00,,
"Cc1cc(-c2ncnn3cc(C4=CCOCC4)cc23)ccc1CNC(=O)c1noc(C(C)(C)C)n1 [Example 6, 5-(tert-butyl)-N-(4-(6-(3,6-dihydro-2H-pyran-4-yl)pyrrolo[2,1-f][1,2,4]triazin-4-yl)-2-methylbenzyl)-1,2,4-oxadiazole-3-carboxamide]",≥ 9.00,6.00 to 7.00,,> 7.00
"Cc1c(CNC(=O)c2nc(C(C)(C)C)no2)ccc(-c2ncnn3cc(N4CCN(C)[C@@H](C)C4)cc23)c1F (single isomer, unassigned) [Example 26]",≥ 9.00,6.00 to 7.00,,
"Cc1cc(-c2ncnn3cc(-c4cnn(C)c4)cc23)ccc1CNC(=O)c1noc(C2(C)CC2)n1 [Example 40, N-(2-methyl-4-(6-(1-methyl-1H-pyrazol-4-yl)pyrrolo[2,1-f][1,2,4]triazin-4-yl)benzyl)-5-(1-methylcyclopropyl)-1,2,4-oxadiazole-3-carboxamide]",≥ 9.00,6.00 to 7.00,,
"COc1c(CNC(=O)c2nc(C(C)(C)C)no2)ccc(-c2ncnn3cc(-c4cnn(C)c4)cc23)c1F [Example 45, 3-(tert-butyl)-N-(3-fluoro-2-methoxy-4-(6-(1-methyl-1H-pyrazol-4-yl)pyrrolo[2,1-f][1,2,4]triazin-4-yl)benzyl)-1,2,4-oxadiazole-5-carboxamide]",≥ 9.00,6.00 to 7.00,,
"Cc1c(CNC(=O)c2nc(C(C)(C)C)no2)ccc(-c2ncnn3cc(N4CCOCC4)cc23)c1F [Example 2, 3-(tert-butyl)-N-(3-fluoro-2-methyl-4-(6-morpholinopyrrolo[2,1-f][1,2,4]triazin-4-yl)benzyl)-1,2,4-oxadiazole-5-carboxamide]",≥ 9.00,6.00 to 7.00,,
"Cn1cc(-c2cc3c(-c4ccc(CNC(=O)c5noc(C(C)(C)C)n5)c(C(F)F)c4F)ncnn3c2)cn1 [Example 36, 5-(tert-butyl)-N-(2-(difluoromethyl)-3-fluoro-4-(6-(1-methyl-1H-pyrazol-4-yl)pyrrolo[2,1-f][1,2,4]triazin-4-yl)benzyl)-1,2,4-oxadiazole-3-carboxamide hydrochloride]",≥ 9.00,6.00 to 7.00,,
"Cc1cc(-c2ncnn3cc(N4C[C@H](C)O[C@@H](C)C4)cc23)ccc1CNC(=O)c1noc(C(C)(C)C)n1 (single isomer, unassigned) [Example 44, hydrochloride]",≥ 9.00,6.00 to 7.00,,
"Cc1c([C@@H](C)NC(=O)c2noc(C(C)(C)C)n2)ccc(-c2ncnn3cc(N4CCOCC4)cc23)c1F [Example 31, (R)-5-(tert-butyl)-N-(1-(3-fluoro-2-methyl-4-(6-morpholinopyrrolo[2,1-f][1,2,4]triazin-4-yl)phenyl)ethyl)-1,2,4-oxadiazole-3-carboxamide]",≥ 9.00,6.00 to 7.00,,
"Cc1cc(-c2ncnn3cc(N4CCN(C)CC4)cc23)ccc1CNC(=O)c1noc(C(C)(C)C)n1 [Example 4, 5-(tert-butyl)-N-(2-methyl-4-(6-(4-methylpiperazin-1-yl)pyrrolo[2,1-f][1,2,4]triazin-4-yl)benzyl)-1,2,4-oxadiazole-3-carboxamide trifluoroacetate]",≥ 9.00,> 7.00,,
"Cc1cc(-c2ncnn3cc(-c4ccn(C)n4)cc23)ccc1CNC(=O)c1noc(C(C)(C)C)n1 [Example 9, 5-(tert-butyl)-N-(2-methyl-4-(6-(1-methyl-1H-pyrazol-3-yl)pyrrolo[2,1-f][1,2,4]triazin-4-yl)benzyl)-1,2,4-oxadiazole-3-carboxamide trifluoroacetate]",≥ 9.00,6.00 to 7.00,,
"Cc1cc(-c2ncnn3cc(N4CCC(F)(F)C4)cc23)ccc1CNC(=O)c1noc(C(C)(C)C)n1 [Example 12, 5-(tert-butyl)-N-(4-(6-(3,3-difluoropyrrolidin-1-yl)pyrrolo[2,1-f][1,2,4]triazin-4-yl)-2-methylbenzyl)-1,2,4-oxadiazole-3-carboxamide trifluoroacetate]",≥ 9.00,6.00 to 7.00,,
"Cc1cc(-c2ncnn3cc(-c4cnn(C)c4)cc23)ccc1[C@@H](C)NC(=O)c1nc(C(C)(C)C)no1 [Example 57, (R)-3-(tert-butyl)-N-(1-(2-methyl-4-(6-(1-methyl-1H-pyrazol-4-yl)pyrrolo[2,1-f][1,2,4]triazin-4-yl)phenyl)ethyl)-1,2,4-oxadiazole-5-carboxamide]",≥ 9.00,6.00 to 7.00,,
"Cc1cc(-c2ncnn3cc(N4CCC(F)C4)cc23)ccc1CNC(=O)c1noc(C(C)(C)C)n1 (stereo not drawn) [Example 11, 5-(tert-butyl)-N-(4-(6-(3-fluoropyrrolidin-1-yl)pyrrolo[2,1-f][1,2,4]triazin-4-yl)-2-methylbenzyl)-1,2,4-oxadiazole-3-carboxamide trifluoroacetate]",≥ 9.00,6.00 to 7.00,,
"COCCn1cc(-c2cc3c(-c4ccc(CNC(=O)c5noc(C(C)(C)C)n5)c(C)c4)ncnn3c2)cn1 [Example 7, 5-(tert-butyl)-N-(4-(6-(1-(2-methoxyethyl)-1H-pyrazol-4-yl)pyrrolo[2,1-f][1,2,4]triazin-4-yl)-2-methylbenzyl)-1,2,4-oxadiazole-3-carboxamide]",≥ 9.00,> 7.00,,
"COc1cc(-c2ncnn3cc(-c4cnn(C)c4)cc23)ccc1CNC(=O)c1noc(C(C)(C)C)n1 [Example 35, 5-(tert-butyl)-N-(2-methoxy-4-(6-(1-methyl-1H-pyrazol-4-yl)pyrrolo[2,1-f][1,2,4]triazin-4-yl)benzyl)-1,2,4-oxadiazole-3-carboxamide hydrochloride]",≥ 9.00,6.00 to 7.00,,
"COCCOc1cc2c(-c3ccc(CNC(=O)c4noc(C(C)(C)C)n4)c(C)c3)ncnn2c1 [Example 58, 5-(tert-butyl)-N-(4-(6-(2-methoxyethoxy)pyrrolo[2,1-f][1,2,4]triazin-4-yl)-2-methylbenzyl)-1,2,4-oxadiazole-3-carboxamide]",≥ 9.00,> 7.00,,
"CC(C)(C)c1nc(C(=O)NCc2cc(F)c(-c3ncnn4cc(N5CCOCC5)cc34)cc2Cl)no1 [Example 1, 5-tert-butyl-N-[[2-chloro-5-fluoro-4-(6-morpholinopyrrolo[2,1-f][1,2,4]triazin-4-yl)phenyl]methyl]-1,2,4-oxadiazole-3-carboxamide]",≥ 9.00,< 6.00,,
"CC(C)(C)c1nc(C(=O)N[C@@H]2CCCCc3c2ccc(-c2ncnn4cccc24)c3F)no1 [Example 56, (R)-5-(tert-butyl)-N-(1-fluoro-2-(pyrrolo[2,1-f][1,2,4]triazin-4-yl)-6,7,8,9-tetrahydro-5H-benzo[7]annulen-5-yl)-1,2,4-oxadiazole-3-carboxamide hydrochloride]",≥ 9.00,6.00 to 7.00,,
